The values below come from patent US20050026812A1, “Conjugated nitro alkene anticancer agents based on isoprenoid metabolism” (Arizona Disease Control Research Commission, priority 2003, published 2005).

Read-outs that look alike come from different tables or passages of the source.

The target in test [1] is T1, human recombinant protein farnesyltransferase (FTase) (Homo sapiens, UniProt P49354+P49356).
T1 construct: gift from Professor Patrick Casey, Duke University
As to the kind of experiment: FTase fluorescence assay after pre-incubation with inhibitor. It is filed as biochemical. The conditions noted are these: 30-minute treatment in vitro, 30° C. As for the experimental part: Preparation of Ds-GCVLS—Ds-GCVLS was prepared by a method analogous to a published procedure. Synthesis was performed by use of a Millipore 9050 Plus PepSynthesizer that employed standard Fmoc solid phase peptide synthesis methodology. PS-PEG resin and Fmoc protected amino acids were obtained from Millipore. The N-dansylglycine was from Sigma Chemical Co. Peptide purification was performed by RP-HPLC on an Alltech Macrosphere RP300 C8 column. Elution was accomplished with a linear gradient from aqueous 10 mM trifluoroacetic acid to 10 mM trifluoroacetic acid in acetonitrile. Lyophilization yielded a pale yellow solid. […] Concentrations of Ds-GCVLS were determined by use of the extinction coefficient of the dansyl group at 340 nm (ε=4250 M-1 cm-1). […]
FTase assay—The fluoresence assay conditions were adapted from a published method. […] Enzyme activity (approximately 60 nM FTase) was monitored at saturating substrate concentrations (10 μM farnesyl diphosphate, ammonium salt, prepared by successive dilutions of a commercial 2.3 mM solution in methanol:10 mM aqueous NH4OH (7:3) into assay buffer, and 1.0 FM Ds-GCVLS) by measurement of the increase in fluorescence emission observed at λ=505 nm as FTase farnesylated Ds-GCVLS for a period of 10 min. […] All fluorescence assays were conducted in a 4 mm×4 mm quartz cuvette with excitation at 340 nm. […]

The test system of test [2] is Colon (HT-29). As to the kind of experiment: Cancer cell growth inhibition in culture, Colon (HT-29). It is filed as cell-based, human. The conditions noted are these: 50% growth inhibition. The source says:
(§1) Cancer cell growth inhibition.

Test [3] relates to Colorectal (Colo-205). As to the kind of experiment: Cancer cell growth inhibition in culture, Colorectal (Colo-205). Particulars: 50% growth inhibition. Type of test: cell-based, human.
Source text: as §1

In test [4] the test system is NSC Lung (H-460). As to the kind of experiment: Cancer cell growth inhibition in culture, NSC Lung (H-460). Type of test: cell-based. Particulars: Homo sapiens, NCI-H460, 50% growth inhibition.
Source text: as §1

Test [5] has as its system Prostate (PC-3). As to the kind of experiment: Cancer cell growth inhibition in culture, Prostate (PC-3). Particulars: Homo sapiens, 50% growth inhibition. It is filed as cell-based.
Source text: as §1

The test system of test [6] is Acute myeloid leukemia (HL-60). As to the kind of experiment: Cancer cell growth inhibition in culture, Acute myeloid leukemia (HL-60). The conditions noted are these: 50% growth inhibition. It is filed as cell-based, human.
Source text: as §1

For test [7], the system named is Fibrosarcoma (HT-1080). As to the kind of experiment: Cancer cell growth inhibition in culture, Fibrosarcoma (HT-1080). The conditions noted are these: 50% growth inhibition. It is filed as cell-based, human.
Source text: as §1

In test [8] the test system is Urinary bladder (T-24). In words: Cancer cell growth inhibition in culture, Urinary bladder (T-24). It is filed as cell-based, human. Particulars: 50% growth inhibition.
Source text: as §1

For test [9], the system named is Colon (Caco-2). As to the kind of experiment: Cancer cell growth inhibition in culture, Colon (Caco-2). Type of test: cell-based, human. The conditions noted are these: 50% growth inhibition.
Source text: as §1

Test [10] has as its system Pancreatic (BXPC-3). As to the kind of experiment: Cancer cell growth inhibition in culture, Pancreatic (BXPC-3). It is filed as cell-based. The conditions noted are these: Homo sapiens.
Source text: (§2) Compound RG-14 was also effective at inhibiting the growth of human cancer cells in culture. The GI50 values of this compound against specified human cancer cells and mouse leukemia cells grown in culture are shown in Table 2.
as §1

Test [11] deals with Breast (MCF-7). In words: Cancer cell growth inhibition in culture, Breast (MCF-7). Type of test: cell-based. Particulars: Homo sapiens, MCF7.
Source text: as §2, §1

The test system of test [12] is Central nervous system (SF268). As to the kind of experiment: Cancer cell growth inhibition in culture, Central nervous system (SF268). Type of test: cell-based. Particulars: Homo sapiens, SF-268.
Source text: as §2, §1

Test [13] relates to Lung (NCI-H460). In words: Cancer cell growth inhibition in culture, Lung (NCI-H460). Type of test: cell-based. The conditions noted are these: Homo sapiens.
Source text: as §2, §1

For test [14], the system named is Colon (KM20L2). As to the kind of experiment: Cancer cell growth inhibition in culture, Colon (KM20L2). It is filed as cell-based. The conditions noted are these: Homo sapiens, KM-20L2.
Source text: as §2, §1

Test [15] concerns Prostate (DU-145). In words: Cancer cell growth inhibition in culture, Prostate (DU-145). Type of test: cell-based. The conditions noted are these: Homo sapiens.
Source text: as §2, §1

In test [16] the test system is Mouse P388 leukemia. As to the kind of experiment: Cancer cell growth inhibition in culture, Mouse P388 leukemia. Particulars: read-out: ED50 (the source's name). Type of test: cell-based.
Source text: as §2, §1

Test [17] concerns human cancer cells and mouse leukemia cells. In words: Cancer cell growth inhibition in culture, panel of Table 2. Type of test: cell-based. Particulars: cell lines of Table 2.
Source text: as §2, §1

As usually defined, the inhibition is the share of the control response that was lost under treatment. Usually GI50 stands for the concentration that inhibits growth by half. Turning to `CC(C)=CCC/C(C)=C/CCC(C)C/C=C(\C)[N+](=O)[O-]` (racemic) [RG-4, 5,9,13-trimethyl-2-nitrotetradeca-2,8,12-triene], the “decrease of FTase activity” value in test [1] (5 μM) was found to be 35%. Further, the inhibition at 50 µM in [1] (50 μM) was 83%. In addition, the GI50 in [2] is 10^−4 to 10^−5 molar; in [3], 10^−4 to 10^−5 molar; in [4] it was 11 µM; in [5], 1.5 µM; in [6], 10^−6 to 10^−7 molar; in [7] it was 10^−6 to 10^−7 molar. The GI50 in [8] and in [9] was 10^−4 to 10^−5 molar in each case.

For `CC(C)=CCCC(C)CC=C(C)[N+](=O)[O-]` (racemic) [RG-14, 5,9-dimethyl-2-nitrodeca-2,8-diene], the GI50 in test [10] stood at 62 µM; in test [11], 39 µM; in test [12], 73 µM; in test [13] it was 72 µM; in test [14], 77 µM; in test [15], 72 µM. The EC50 in test [16] was 26 µM.

Regarding `CC(C)=CCCC(C)C/C=C/[N+](=O)[O-]` (stereo not drawn) [RG-7, 4,8-dimethyl-1-nitronona-1,7-diene], the GI50 in test [2] is 10^−4 to 10^−5 molar; in [3], 10^−4 to 10^−5 molar; in test [4], 12 µM; in [5], 44 µM; in test [6] (Homo sapiens, read-out: GI50), above 100 µM; in test [7] it was 10^−4 to 10^−5 molar. The GI50 in [8] is 10^−4 to 10^−5 molar; in test [9] (Homo sapiens, read-out: GI50), above 100 µM.

On to `CC(C)=CCCC(C)CCC(C)[N+](=O)[O-]` (stereo not drawn) [SRG-8, reference compound], for which the GI50 in [10], in [11], in [12], in test [13], in test [14] and in test [15] was above 47 µM in each case. In test [16], the EC50 is above 126 µM. Besides, the “anticancer cell growth activity” value in test [17] is “did not show detectable anticancer cell growth activity”.
